Entries after “also recorded” stand apart in the source; their conditions may differ. Like-named read-outs stand apart in the source and are kept apart here.
Tests used:
[1] = Concentration of RNA in nanoparticle composition (ultraviolet-visible spectroscopy); assay type: physicochemical; details: Table 5, hEPO mRNA
Protocol: Ultraviolet-visible spectroscopy can be used to determine the concentration of a therapeutic and/or prophylactic agent (e.g., RNA) in nanoparticle compositions. 100 μL of the diluted formulation in 1×PBS is added to 900 μL of a 4:1 (v/v) mixture of methanol and chloroform. After mixing, the absorbance spectrum of the solution is recorded, for example, between 230 nm and 330 nm on a DU 800 spectrophotometer (Beckman Coulter, Beckman Coulter, Inc., Brea, Calif.). The concentration of therapeutic and/or prophylactic agent in the nanoparticle composition can be calculated based on the extinction coefficient of the therapeutic and/or prophylactic agent used in the composition and on the difference between the absorbance at a wavelength of, for example, 260 nm and the baseline value at a wavelength of, for example, 330 nm.

[2] = tested on: luciferase (Luc) mRNA expression; experiment: Expression of Luc induced by sample formulations, whole-body bioluminescence after intravenous administration; assay type: in vivo
Method in brief: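 Mice (n=6) dosed intravenously with Luc mRNA nanoparticle formulations at 0.5 mg/kg. Whole-body bioluminescence measured at 3, 6 and 24 h. Standard MC3 formulation and PBS control run alongside.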

[3] = tested on: modified luciferase expression; experiment: Expression of Luc in different organs (liver, lung, spleen, femur) 6 hours after intravenous administration; assay type: in vivo; details: i.v., 0.5 mpk
Protocol: The efficacy of the nanoparticle compositions presented in Tables 1, 1a, 17-1, 19-1, 20-1 and 21-1 was further evaluated by measuring the expression of modified luciferase in the liver, lung, spleen, and femur upon administration of a given composition. Formulations were administered intravenously to mice (n=3) at a dosage of 0.5 mpk and bioluminescence measured after 6 hours. The standard MC3 formulation and a PBS control were also tested.

[4] = tested on: hEPO mRNA expression; experiment: Expression of hEPO in rats after intravenous administration; assay type: in vivo; details: for hEPO (pg/mL) 3 hours / hEPO (pg/mL) 6 hours / hEPO (pg/mL) 24 hours: Table 6, 0.2 mg/kg or 0.5 mg/kg; for Lipid/MC3 hEPO S.D. (rats): hEPO expression relative to MC3, S.D. rats, intravenous
Protocol: PBS (phosphate buffered saline) is used as control.
Formulations were prepared according to Table 5 and included mRNA encoding hEPO.
[…] After the 48 hour time point, livers and spleens were harvested and frozen.

[5] = tested on: hEPO mRNA expression; experiment: Expression of hEPO in CD-1 mice; assay type: in vivo; details: for Lipid/MC3 hEPO CD-1 (mice): hEPO expression relative to MC3, CD-1 mice
Description: FIG. 12 is a set of graphs illustrating hEPO expression levels in CD-1 mice dosed with compounds of the disclosure, compared to MC3. PBS is used as control. […] In graphs A-C numbers 1-14 refer to compositions containing the following: 1: Compound 73, 2: Compound 80, 3: Compound 70; 4: Compound 81; 5: Compound 69; 6: Compound 82; 7: Compound 83; 8: Compound 62; 9: Compound 84; 10: Compound 85; 11: Compound 86; 12: Compound 87; 13: MC3; 14: PBS.
FIG. 13 is a graph showing hEPO levels (pg/mL) in CD-1 mice up to ˜25 h after administration of a nanoparticle composition containing compounds of the disclosure, compared to a composition containing MC3. Numbers 1-13 refer to compositions containing the following: 1: Compound 73, 2: Compound 80, 3: Compound 70; 4: Compound 81; 5: Compound 69; 6: Compound 82; 7: Compound 83; 8: Compound 62; 9: Compound 84; 10: Compound 85; 11: Compound 86; 12: Compound 87; 13: MC3. […]

[6] = Lipid levels in liver and spleen 48 hours after administration; assay type: in vivo, rats; details: for concentration at 48 h: Sprague-Dawley, rat, intravenous
Method in brief: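 Rats (n=3 or 6) received lipid nanoparticle formulations intravenously at 0.2 mg/kg or 0.5 mg/kg. Liver and spleen were harvested and frozen 48 h after dosing, and the lipid amount remaining in each tissue was measured and expressed as a fraction of the dose.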

[7] = Table 2, mice, i.v., 0.5 mg/kg, 3 hours
[8] = Table 17-2, mice, i.v., 0.5 mg/kg
[9] = Table 19-2, mice, i.v., 0.5 mg/kg
[10] = Table 20-2, mice, i.v., 0.5 mg/kg
[11] = Table 21-2, mice, i.v., 0.5 mg/kg
[12] = liver, 48 hours after administration, read-out: Lipid in liver
[13] = spleen, 48 hours after administration, read-out: Lipid in spleen
[14] = liver, 48 hours after administration
[15] = spleen, 48 hours after administration

Question: For `CCCCCC=CCC=CCCCCCCCCC(CCCCCCCCC=CCC=CCCCCC)OC(=O)CCCN(C)C` (stereo not shown) [MC3, heptatriaconta-6,9,28,31-tetraen-19-yl 4-(dimethylamino)butanoate, reference compound], which “Conc.” value ([1]; 50:10:38.5:1.5 Lipid:DSPC:Chol:PEG-DMG) is on record?
Answer: 470.45 µg/mL

Question: And the “Total Flux 3 hours” value [2, 7]?
Answer: 1.63E+10

Question: And the “Total Flux 6 hours” value ([2]; Table 2, mice, i.v., 0.5 mg/kg)?
Answer: 1.73E+10

Question: What about the “Total Flux 24 hours” value ([2]; Table 2, mice, i.v., 0.5 mg/kg) of the same compound?
Answer: 1.16E+09

Question: And the “Total Flux 3 hours” value ([2]; Table 17-2, mice, i.v., 0.5 mg/kg, 3 hours)?
Answer: 1.63E+10

Question: And the “Total Flux 6 hours” value [2, 8]?
Answer: 2.13E+10

Question: What about the “Total Flux 24 hours” value [2, 8] of the same compound?
Answer: 1.01E+09

Question: And the “Total Flux 3 hours” value ([2]; Table 19-2, mice, i.v., 0.5 mg/kg, 3 hours)?
Answer: 1.53E+10

Question: What about the “Total Flux 6 hours” value [2, 9] of the same compound?
Answer: 1.73E+10

Question: And the “Total Flux 24 hours” value [2, 9]?
Answer: 1.13E+09

Question: And the “Total Flux 3 hours” value ([2]; Table 20-2, mice, i.v., 0.5 mg/kg, 3 hours)?
Answer: 1.73E+10

Question: What about the “Total Flux 6 hours” value [2, 10] of the same compound?
Answer: 1.94E+10

Question: And the “Total Flux 24 hours” value [2, 10]?
Answer: 8.48E+08

Question: And the “Total Flux 3 hours” value ([2]; Table 21-2, mice, i.v., 0.5 mg/kg, 3 hours)?
Answer: 1.69E+10

Question: What about the “Total Flux 6 hours” value [2, 11] of the same compound?
Answer: 2.87E+10

Question: What about the “Total Flux 24 hours” value [2, 11] of the same compound?
Answer: 2.23E+10

Question: What about the “total flux after 3 hours, rank within the named table (in words)” value ([2]; mice, i.v., 0.5 mg/kg, 3 hours) of the same compound?
Answer: highest after 3 hours

Question: What about the “total flux / Luc expression, rank within the named table (in words)” value ([2]; mice, i.v., 0.5 mg/kg, each time point) of the same compound?
Answer: highest total flux; also recorded: highest luciferase expression

Question: And the “Total Flux Femur” value ([3]; Table 3, mice)?
Answer: 3.08E+06

Question: What about the “Total Flux Liver” value ([3]; Table 3, mice, liver) of the same compound?
Answer: 2.31E+09

Question: And the “Total Flux Lung” value ([3]; Table 3, mice)?
Answer: 8.61E+06

Question: What about the “Total Flux Spleen” value ([3]; Table 3, mice) of the same compound?
Answer: 1.95E+07

Question: And the “Total Flux Femur” value ([3]; Table 17-3, mice)?
Answer: 6.03E+06

Question: And the “Total Flux Liver” value ([3]; Table 17-3, mice, liver)?
Answer: 2.75E+09

Question: What about the “Total Flux Lung” value ([3]; Table 17-3, mice) of the same compound?
Answer: 7.25E+06

Question: And the “Total Flux Spleen” value ([3]; Table 17-3, mice)?
Answer: 2.62E+07

Question: And the “Total Flux Liver” value ([3]; Table 19-3, mice, liver)?
Answer: 2.39E+09

Question: And the “Total Flux Lung” value ([3]; Table 19-3, mice)?
Answer: 5.83E+06

Question: What about the “Total Flux Spleen” value ([3]; Table 19-3, mice) of the same compound?
Answer: 2.45E+07

Question: And the “Total Flux Femur” value ([3]; Table 20-3, mice)?
Answer: 2.60E+06

Question: And the “Total Flux Liver” value ([3]; Table 20-3, mice, liver)?
Answer: 2.48E+09

Question: And the “Total Flux Lung” value ([3]; Table 20-3, mice)?
Answer: 1.28E+07

Question: What about the “Total Flux Spleen” value ([3]; Table 20-3, mice) of the same compound?
Answer: 2.85E+07

Question: What about the “Total Flux Liver” value ([3]; Table 21-3, mice, liver) of the same compound?
Answer: 3.05E+09

Question: And the “Total Flux Lung” value ([3]; Table 21-3, mice)?
Answer: 6.60E+06

Question: And the “Total Flux Spleen” value ([3]; Table 21-3, mice)?
Answer: 4.73E+07

Question: What about the “total flux in organs, rank or organ comparison (in words)” value ([3]; mice, each organ or overall, 0.5 mg/kg) of the same compound?
Answer: highest total flux; also recorded: highest expression in each organ

Question: What about the “total flux in the liver, rank within the named table (in words)” value ([3]; mice, liver) of the same compound?
Answer: highest

Question: And the “hEPO (pg/mL) 3 hours” value ([4]; rats, i.v.)?
Answer: 1407947 pg/mL

Question: What about the “hEPO (pg/mL) 6 hours” value ([4]; rats, i.v.) of the same compound?
Answer: 1036013 pg/mL

Question: And the “hEPO (pg/mL) 24 hours” value ([4]; rats, i.v.)?
Answer: 436243 pg/mL

Question: And the “AUC (0.1 mpk)” value ([4]; hEPO expression in S.D. rats, 0.1 mpk)?
Answer: 1.62E+06

Question: And the “AUC (1 mpk)” value ([4]; hEPO expression in S.D. rats, 1 mpk)?
Answer: 1.17E+08

Question: What about the “Lipid/MC3 hEPO S.D. (rats)” value [4] of the same compound?
Answer: 1

Question: And the “hEPO expression in rats, comparison (in words)” value ([4]; rats, i.v., 0.2 or 0.5 mg/kg, Tables 6, 7a)?
Answer: highest hEPO expression at each time point

Question: And the “Lipid/MC3 hEPO CD-1 (mice)” value [5]?
Answer: 1

Question: What about the concentration at 48 h [6, 12] of the same compound?
Answer: 21800 ng/g

Question: What about the concentration at 48 h [6, 13] of the same compound?
Answer: 2780 ng/g

Question: And the “% remaining dose in liver” value [6, 14]?
Answer: 51%

Question: And the “dose remaining in the liver after 48 hours” value [6, 14]?
Answer: approximately 60%

Question: What about the “% dose remainng Rat liver (48 h)” value ([6]; rat liver, 48 h) of the same compound?
Answer: 43.11%

Question: What about the “% remaining dose in spleen” value [6, 15] of the same compound?
Answer: 0.44%

Question: What does the source list for `CCCCCCCCCCCCN(CCCCCCCCCCCC)CCN(CCCCCCCCCCCC)CCN1CCN(CCN(CCCCCCCCCCCC)CCCCCC(=O)OCCCCC)CC1` [Compound 12, Pentyl 6-((2-(4-(2-((2-(didodecylamino)ethyl)(dodecyl)amino)ethyl)piperazin-1-yl)ethyl)(dodecyl)amino)hexanoate]?
Answer: Conc. ([1]; 40:20:38.5:1.5 Lipid:DOPE:Chol:PEG-DMG): 320.14 µg/mL; Total Flux 3 hours [2, 7]: 1.06E+10; Total Flux 6 hours ([2]; Table 2, mice, i.v., 0.5 mg/kg): 1.38E+10; Total Flux 24 hours ([2]; Table 2, mice, i.v., 0.5 mg/kg): 6.03E+08; Luc expression in mice compared with MC3 (in words) ([2]; Table 7a): significantly lower; Total Flux Liver ([3]; Table 3, mice, liver): 1.05E+09; Total Flux Lung ([3]; Table 3, mice): 6.76E+06; Total Flux Spleen ([3]; Table 3, mice): 1.11E+07; hEPO (pg/mL) 3 hours ([4]; rats, i.v.): 592260 pg/mL; hEPO (pg/mL) 6 hours ([4]; rats, i.v.): 424740 pg/mL; hEPO (pg/mL) 24 hours ([4]; rats, i.v.): 165404 pg/mL; Lipid/MC3 hEPO S.D. (rats) [4]: 0.32; hEPO expression in mice compared with MC3 (in words) ([5]; Table 7a, mice): substantially higher; Lipid/MC3 hEPO CD-1 (mice) [5]: 2.3; concentration at 48 h [6, 12]: 16800 ng/g; concentration at 48 h [6, 13]: 2320 ng/g; % remaining dose in liver [6, 14]: 23.8%; % remaining dose in spleen [6, 15]: 0.22%

Source: US10195156B2, “Compounds and compositions for intracellular delivery of agents” (ModernaTX, Inc., priority 2015, dated 2019)
